Data set [1] deals with pig islet xenograft in Lewis rats. Briefly: Immunohistochemical analysis of pig islet xenograft, non-diabetic recipients (Example 1). Also on record: key to Insulin staining of graft: 0 = absent; + = single cell only; ++ = cell groups; +++ = large cell groups; key to OX33 (B cells) leukocytic infiltration (IHC) / ED1 (CD68) leukocytic infiltration (IHC) / CD3 (Tcells) leukocytic infiltration (IHC) / CD8 leukocytic infiltration (IHC) / CD4 leukocytic infiltration (IHC): 0 = absent; + = single or few; ++ = moderate; +++ = plenty. Conditions: non-diabetic Lewis rats, 2,000 IE pig islets, day +12 post transplant. The format is in vivo. The text has this:
Pancreata were removed from donor outbred female pigs, >2 years old, by standard surgical technique. Following removal, pancreata were perfused with Liberase HI (Roche Diagnostics Corp., Indianapolis, Ind., U.S.A., Cat. No. 1666720) for intraductal distension. Islet cells were dissociated from the perfused pancreata by the automated method. Cleaved islets were separated from non-islet tissue by continuous OptiPrep gradients (Accurate Chemical and Scientific Corp., Westbury, N.Y., U.S.A., Cat. No. AN-1030061) on a COBE 2991 cell separator (Gambro BCT International, Lakewood, Colo., U.S.A.). The resulting free floating, purified islet cells were cultured in M199 medium supplemented with 20% donor pig serum for 48 hours at 37° C.
Transplantation was conducted by standard surgical technique. Briefly, the recipient animals, non-diabetic inbred male Lewis rats weighing 250-270 grams, were anesthetized with Telazol 0.20 mg/kg BW, administered i.m. In addition, the analgesic buprinorphine was administered s.c. to the recipient animals. Transplantation was conducted by making a left flank incision on the recipient, into which 2,000 donor islet equivalents (IE) were injected under the left kidney capsule via PE-50 tubing according to standard procedure.
(§1) In this study, recipients were administered the following immunosuppressive drugs: anti-CD40L mAb AH.F5 (Biogen, Inc., Cambridge, Mass., U.S.A.; 12 mg/kg BW, administered i.p. on day—1, 0, 1, 7, and then twice weekly); non-depleting anti-CD4 mAb RIB 5/2 (20 mg/kg BW, administered i.p. on day—1, 0, 1, 2, 3, 5, and then twice weekly); Ha4/8, a non-specific control to anti-CD40L (12 mg/kg BW, administered i.p. on day—1, 0, 1, 7, and then twice weekly); and FK-506 (Prograf, Fujisawa, Inc.; diluted to 1.25 mg/ml in sterile water, 0.3 mg/kg BW, administered i.m. daily from day—2, i.e., 2 days prior to transplant).
Animals were sacrificed by intracardiac exsanguination after ether anesthesia on day +12 post transplant for histological analysis of the graft. Kidneys bearing xenografts were harvested, snap frozen in liquid nitrogen and stored at −70° C.
The following primary Abs were used for immunohistochemical analysis: W3/24 (anti-CD4; available from Pharmingen) W3/13 (anti-CD3; available from Pharmingen); OX-8 (anti-CD8; available from Pharmingen); NK1.2.3 (anti-NK cell; available from Pharmingen); OX-33 (anti-B cell; available from Serotec); ED1 (anti-CD68/macrophages; available from Serotec); and insulin from Dako. The immunohistochemical analysis was visualized by an avidin-biotin-peroxidase complex method and AEC as chromogen. In the case of a positive immunoreaction, a red-brown precipitate developed.

A further data set concerns Lewis rats. Briefly: Toxicity / body weight of recipients (Example 1). Conditions: when FK506 (0.3 mg/kg BW) was added, 12 days follow up. The format is in vivo. The protocol:
as §1
Control animals increased on average 15% in weight. All antibody treated animals (alone or in combination, but without FK506) increased weight parallel to untreated controls. […] This toxicity is significant, considering that the follow up was only 12 days and that the dose of FK506 (0.3 mg/kg BW) is equal or lower than in studies reporting no toxicity.

Take `C=CC[C@@H]1/C=C(\C)C[C@H](C)C[C@H](OC)[C@H]2O[C@@](O)(C(=O)C(=O)N3CCCC[C@H]3C(=O)O[C@H](/C(C)=C/[C@@H]3CC[C@@H](O)[C@H](OC)C3)[C@H](C)[C@@H](O)CC1=O)[C@H](C)C[C@@H]2OC` [FK, FK-506]: in data set [1], the “CD3 (Tcells) leukocytic infiltration (IHC)” value is “++”, the “CD4 leukocytic infiltration (IHC)” value was “++”, the “CD8 leukocytic infiltration (IHC)” value is “+” and the “ED1 (CD68) leukocytic infiltration (IHC)” value is “+”. For the same molecule, in data set [1], the “Insulin staining of graft” value is “++” and the “OX33 (B cells) leukocytic infiltration (IHC)” value is reported as “+”. In addition, the body weight lost result in the data set with Lewis rats is “around 5%”.

The values above are taken from patent US20030170239A1, “Immunotherapeutic method to prevent islet cell rejection” (priority 2000, published 2003).
